Laboratory results from patent US7511123B2, “Immuno-interactive fragments of the alpha-C subunit of inhibin” (Prince Henry's Institute of Medical Research, priority 1999, dated 2009).

Key:
As #41 = test: RIA (Assay 2): competition with iodinated inhibin for As #41; type: binding, sheep; conditions: biotinylated peptides; 50% fall in binding of iodinated inhibin
Source text: (§1) This assay was used to determine which peptides compete with iodinated 30 kDa inhibin for As #41, #128 and #1989 (used in the original inhibin RIA, Lapphorn et al., 1989, supra) in a RIA format. This assay identifies those peptides that bind to inhibin-binding antibodies in the antiserum and provides a stricter affinity and specificity assessment in identifying the appropriate epitopes than that found with Assay 1. The competition between peptide and hr-inhibin (used as the standard) was assessed from their ED50 values. The RIA consisted of the competition of iodinated inhibin and either hr-inhibin reference preparation, individual peptides or pools from the 4 peptide regions, with As #41, #128 and in some instances, As #1989. The peptides/inhibin/iodinated inhibin and antisera (at a prescribed dilution) were incubated overnight at 4° C. using standard methodologies. The antibody-bound iodinated inhibin was immunoprecipitated with the addition of an anti-sheep IgG serum raised in goats and the radioactivity was measured in a gamma counter. The concentration of peptide that gives a 50% fall in binding of iodinated inhibin (ED50) was determined and this value was used to give a measure of the affinity of the peptide for the antiserum. This methodology consisted of determining the ED50 of the peptide in the RIA using iodinated human recombinant inhibin as tracer with either As #41, As #128 or As #1989 and graded doses of either hr-inhibin or peptide as described in Example 2.

As #128 [1] = test: RIA (Assay 2): competition with iodinated inhibin for As #128; type: binding, sheep; conditions: biotinylated peptides; 50% fall in binding of iodinated inhibin
Source text: as §1

As #1989 = test: RIA (Assay 2): competition with iodinated inhibin for As #1989; type: binding, rabbit; conditions: biotinylated peptides; 50% fall in binding of iodinated inhibin
Source text: as §1

PO-14 [2] = test: Solid phase binding of Set 2 peptides to PO-14; design: species or system mouse; key: +++; ΦΦΦ strong effect; +, Φ weak effect; conditions: Set 2 biotinylated peptides 24 micromoles/L
Protocol: (§2) The binding of the 41 biotinylated peptides as set forth in Table 7 (peptide set 2) to the mouse monoclonal antibodies (PO# series) was assessed as follows:
(§3) a) Assay 1 (solid phase assay). The assay was undertaken as outlined in assay 1 of Example 2. Biotinylated peptides (24 micromoles/L) were initially bound to streptavidin-coated plates. Mab (at an appropriate dilution to give a detectable response, 1:1000, 1:10000 dilution of the culture medium) was then added and incubated for 1.5 hr. The amount of bound Mab was determined using horseradish peroxidase-bound anti-mouse IgG serum and enzyme activity detected at 450-630 nm using an ELISA plate reader.

PO-14 [3] = test: RIA of Set 2 peptides with PO-14; type: binding, mouse; conditions: Set 2 biotinylated peptides 0.8 and 0.08 micromoles/L
Protocol: (§4) The binding of the 41 biotinylated peptides as set forth in Table 7 (peptide set 2) to the mouse monoclonal antibodies (PO# series) was assessed as follows: b) Assay 2 (radioimrnunoassay, RIA) using iodinated human inhibin A as tracer. Mabs (at an appropriate dilution, see above) were incubated with iodinated human recombinant inhibin in the presence of biotinylated peptides (0.8 and 0.08 micromoles/L final concentration) overnight at room temperature.

PO-12 [4] = test: RIA of Set 2 peptides with PO-12; type: binding, mouse; design: key: +++; ΦΦΦ strong effect; +, Φ weak effect; conditions: Set 2 biotinylated peptides 0.8 and 0.08 micromoles/L
Protocol: as §4

As #128 [5] = test: Solid phase assay (Assay 1): biotinylated peptides binding to As #128; design: species or system sheep; key: +++++ major contribution; + minor contribution; conditions: relative contribution
Protocol: This assay is a broad screen of the binding of the 31 biotinylated peptides to As #41 and #128 as recommended by Chiron Mimotopes.
The biotinylated peptides were initially bound to streptavidin-coated 96-well plates (2 hours at room temperature), antiserum #41 or #128 was then added (2 hours room temperature) to bind to the peptides. Detection of antiserum binding was assessed by a further incubation with an anti-ovine IgG serum labeled with the enzyme, horseradish peroxidase. The enzyme activity was assessed by conversion of a colorless substrate to a colored product that is detected in a spectrophotometer. The enzyme activity measured was proportional to the extent of the binding of the peptides.

As #128 [6] = test: Competitive 2-site assay (Assay 3), approach (a); type: binding, sheep; design: key: +++++ major contribution; + minor contribution; conditions: relative contribution
Source text: This assay was developed to establish the relative importance of the individual peptides and peptide pools (identified as epitopes in Assays 1 and 2) in the sandwich antibody format used in the IFMA with As #128 as capture antibody and As #41 as detection antibody. Two approaches (a and b) were considered, Approach (a) explores the cross-reaction of peptides with inhibin for the immobilized As #128 while Approach (b) assesses their cross-reaction with inhibin for As #41.
Approach (a). The biotinylated peptide pools and/or individual peptides at various concentrations, in combination with a fixed concentration of hr-inhibin, were incubated for 2 hours with As #128-coated plates. The plates were then washed to remove any unbound material. Iodinated As #41 was then added to bind to the bound hr-inhibin, the plates washed and the bound radioactivity was measured in a gamma counter. The counts measured were proportional to the amount of hr-inhibin bound to both antisera. The possibility that a peptide contained two epitopes capable of linking As #128 and #41 was assessed in the absence of added hr-inhibin.

R1 = test: RIA of Set 2 peptides with R1; type: binding, mouse; design: key: +++; ΦΦΦ strong effect; +, Φ weak effect; conditions: Set 2 biotinylated peptides 0.8 and 0.08 micromoles/L
Protocol: as §4

PO-12 [7] = test: Solid phase binding of Set 2 peptides to PO-12; design: species or system mouse; key: +++; ΦΦΦ strong effect; +, Φ weak effect; conditions: Set 2 biotinylated peptides 24 micromoles/L
Protocol: as §2, §3

PO-14 [8] = test: RIA of Set 2 peptides with PO-14; type: binding, mouse; design: key: +++; ΦΦΦ strong effect; +, Φ weak effect; conditions: Set 2 biotinylated peptides 0.8 and 0.08 micromoles/L
Protocol: as §4

Row | Substance | As#41 ED50 (As #41) [nM] | As#128 ED50 (As #128 [1]) [nM] | As#1989 ED50 (As #1989) [nM] | PO-14 SPB (PO-14 [2]) | PO-14 RIA (PO-14 [3]) | PO-12 RIA (PO-12 [4]) | #128 Antibody screen Assay 1 (As #128 [5]) | #128 2-site competitive assay Assay 3 (As #128 [6]) | R1 RIA (R1) | PO-12 SPB (PO-12 [7]) | PO-14 RIA (PO-14 [8])
1 | SGSG AALPGTMRPLHVRT [Peptide 27] | 5000 | 2000 | >2500 | +++ | ΦΦ | Φ | – | – | – | – | –
2 | SGSG ALRLLQRPPEEPAA [Peptide 6] | 26 | 1800 | >2500 | – | – | – | + | + | Φ | – | –
3 | SGSG GAPPTPAQPYSLLP [Peptide 22] | 5000 | 156 | >2500 | +++ | – | Φ | – | – | – | +++ | Φ
